# Assay: CLEAR OUTCOMES trial: adverse events and safety laboratory findings
# Format: in vivo, human
# Conditions: for Any muscle disorder, %: prespecified adverse event of special interest
# From the text: The CLEAR OUTCOMES trial was a randomized, placebo-controlled, double-blind trial that enrolled patients at 1250 sites in 32 countries. An independent Data Monitoring Committee reviewed safety and efficacy data during the trial. Patients 18 to 85 years of age were eligible for enrollment if they met either of two criteria for increased cardiovascular risk, a prior cardiovascular event (secondary prevention) or clinical features that placed them at high risk for a cardiovascular event (primary prevention). (Nicholls […], Bays H E, et al. Rationale and design of the CLEAR-outcomes trial: Evaluating the effect of bempedoic acid on cardiovascular events in patients with statin intolerance. Am Heart J. 2021 May; 235: 104-112) All patients provided written informed consent. Patients had to report statin intolerance due to an adverse effect that started or increased during statin therapy and resolved or improved after statin therapy was discontinued. Patients could be enrolled if they tolerated a very low average daily statin dose (e.g., an average daily dose of rosuvastatin <5 mg, atorvastatin <10 mg, simvastatin <10 mg, lovastatin <20 mg, pravastatin <40 mg, fluvastatin <40 mg, or pitavastatin <2 mg). Other lipid-lowering therapies were permitted, including ezetimibe, niacin, bile acid resins, fibrates, and/or proprotein convertase subtilisin kexin type 9 (PCSK9) inhibitors. Full inclusion and exclusion criteria are provided in Nicholls et al. (Am Heart J. 2021). Eligible patients entered a 4-week run-in period during which patients were treated with single-blind placebo. If patients were intolerant to placebo treatment or if adherence was <80% by tablet count, they were not eligible for randomization. […] Beginning 6 months after enrollment, the central laboratory notified the investigator if the patient's LDL-cholesterol level was ≥25% higher than baseline. These patients were counseled on healthy dietary guidelines and reminded to take all lipid-regulating medications. If repeat testing confirmed that LDL-cholesterol value met the threshold criteria, the provider could adjust the lipid-lowering treatment regimen per standard of care and local guidelines.
# [1] = N = 7001, listed as bempedoic acid
# [2] = at any visit, repeated and confirmed, N = 7001
structure (smiles),measurement,setting,value
"CC(C)(CCCCCC(O)CCCCCC(C)(C)C(=O)O)C(=O)O [Bempedoic Acid, Bempedoic acid]","Adverse event leading to drug discontinuation, %","180 mg oral daily, N = 7001",(11.0) %
same,"Any treatment emergent adverse event, %","180 mg oral daily, N = 7001",(86.3) %
same,"Serious treatment emergent adverse event, %","180 mg oral daily, N = 7001",(25.4) %
same,"Adjudicated tendon rupture, %",N = 7001,(1.2) %
same,"Atrial fibrillation, %",N = 7001,(3.3) %
same,"Cholelithiasis, %",N = 7001,(2.2) %
same,"Discontinuation of treatment due to myalgia, %",N = 7001,(1.8) %
same,"Elevated hepatic enzymes, %",N = 7001,(4.5) %
same,"Gout, %",N = 7001,(3.1) %
same,"Hyperuricemia, %",N = 7001,(10.9) %
same,"Hypoglycemia, %",N = 7001,(4.3) %
same,"Malignancies, %",N = 7001,(4.7) %
same,"Metabolic acidosis, %",N = 7001,(0.2) %
same,"Myalgia, %",N = 7001,(5.6) %
same,"Neurocognitive disorders, %",N = 7001,(0.8) %
same,"Renal impairment, %",N = 7001,(11.5) %
same,"Tendinopathies, %",N = 7001,(1.7) %
same,"Cholelithiasis, %",[1],2.2%
same,"Elevated hepatic enzymes, %",[1],4.5%
same,"Gout, %",[1],3.1%
same,"Hyperuricemia, %",[1],10.9%
same,"Renal impairment, %",[1],11.5%
same,Change from baseline in creatinine levels,"after 6 months, mean",0.05 mg/dL
same,Change from baseline in uric acid levels,"after 6 months, mean",0.76 mg/dL
same,Change from baseline in glycated hemoglobin level (%),"after 12 months, not a prespecified safety measure",0.04%
same,"Creatine kinase levels >5x ULN (repeated and confirmed), %","at any visit, N = 7001",(0.1) %
same,"Creatine kinase levels >5x ULN (single occurrence), %","at any visit, N = 7001",(0.6) %
same,"Alanine aminotransferase level >3 times ULN, %",[2],(1.2) %
same,"Aspartate aminotransferase level >3 times ULN, %",[2],(1.1) %
same,tolerability of treatment,discontinuation rates similar to placebo,well tolerated
same,"Worsening hyperglycemia, %",in patients with diabetes at baseline,(22.7) %
same,Mean changes in creatinine and uric acid from baseline compared with placebo,in vivo,larger
same,"New onset diabetes in patients with normoglycemia at baseline, %",in vivo,(5.5) %
same,"New onset diabetes in patients with pre-diabetes at baseline, %",in vivo,(19.5) %
same,"New onset diabetes in patients without diabetes at baseline, %",in vivo,(16.1) %
same,Rates of liver transaminase elevations >3×ULN compared with placebo,in vivo,more frequent
same,"Any muscle disorder, %",N = 7001,(15.0) %
same,"Any muscle disorder, %",[1],15.0%
same,"between group differences in overall rates of adverse events, serious adverse events, or adverse events leading to drug discontinuation",vs placebo,not clinically meaningful between group differences
same,"other prespecified adverse events of special interest (diabetes, hypoglycemia, metabolic acidosis, neurocognitive disorders, atrial fibrillation, tendinopathies, malignancies)",vs placebo,no differences

# Source: patent US20240226048A1, “METHODS OF TREATMENT USING BEMPEDOIC ACID” (Esperion Therapeutics, Inc., priority 2023, published 2024)
